# Experimental data reported in patent US8796458B2, “Cyclohexylamine isoquinolone derivatives” (Sanofi, priority 2005, dated 2014).
# Biological target: T1, ROCKII or ROKα (Homo sapiens, UniProt O75116)
# T1 construct: purchased Upstate 14-451
# Test: Determination of Rho kinase inhibition (33P-ATP Flash Plate assay)
# Type: biochemical
# Details: ATP 40 μM, respective form (salt or free base) as obtained in the examples
# Experimental: Determination of Rho Kinase Inhibition
# To measure Rho-kinase inhibition, IC50 values were determined according to the following protocol:
# Buffer: 25 mM Tris pH7.5; 0.02% BSA; 5% Glycerol; 0.008% Triton X100; 2% DMSO, 1 mM DTT; 1 mM MgCl2; 0.5 μCi/well γ^33P ATP
# Enzyme: ROCKII or ROKα) (Upstate, Catalog #14-451) 0.1 ng/μl
# Final concentration of ATP in reaction mixture 40 μM
# Biotinylated substrate, diluted to 0.25 μM with buffer described above (without ATP) • 1. 10 μl Tris buffer (±Inhibitor) • 2. Add 30 μL of enzyme solution • 3. Start the reaction with 30 μL of mix substrate/ATP/ATP33 • 4. Incubate for 20 min at room temperature • 5. Stop reaction with 30 μL of 50 mM EDTA • 6. Transfer 50 μL of stopped solution to Streptavidin Flash Plate plus, Perkin Elmer, SMP 103A • 7. Incubate for 30 min at RT • 8. Wash 4 times with 300 μl of PBS/0.1% Tween 20 • 9. Radioactivity in the well was determined
# The following products/compounds were tested in said assay by using the respective form (salt or free base) obtained as in the examples described above and the following activities were measured.
# T1 sequence (O75116 whole entry): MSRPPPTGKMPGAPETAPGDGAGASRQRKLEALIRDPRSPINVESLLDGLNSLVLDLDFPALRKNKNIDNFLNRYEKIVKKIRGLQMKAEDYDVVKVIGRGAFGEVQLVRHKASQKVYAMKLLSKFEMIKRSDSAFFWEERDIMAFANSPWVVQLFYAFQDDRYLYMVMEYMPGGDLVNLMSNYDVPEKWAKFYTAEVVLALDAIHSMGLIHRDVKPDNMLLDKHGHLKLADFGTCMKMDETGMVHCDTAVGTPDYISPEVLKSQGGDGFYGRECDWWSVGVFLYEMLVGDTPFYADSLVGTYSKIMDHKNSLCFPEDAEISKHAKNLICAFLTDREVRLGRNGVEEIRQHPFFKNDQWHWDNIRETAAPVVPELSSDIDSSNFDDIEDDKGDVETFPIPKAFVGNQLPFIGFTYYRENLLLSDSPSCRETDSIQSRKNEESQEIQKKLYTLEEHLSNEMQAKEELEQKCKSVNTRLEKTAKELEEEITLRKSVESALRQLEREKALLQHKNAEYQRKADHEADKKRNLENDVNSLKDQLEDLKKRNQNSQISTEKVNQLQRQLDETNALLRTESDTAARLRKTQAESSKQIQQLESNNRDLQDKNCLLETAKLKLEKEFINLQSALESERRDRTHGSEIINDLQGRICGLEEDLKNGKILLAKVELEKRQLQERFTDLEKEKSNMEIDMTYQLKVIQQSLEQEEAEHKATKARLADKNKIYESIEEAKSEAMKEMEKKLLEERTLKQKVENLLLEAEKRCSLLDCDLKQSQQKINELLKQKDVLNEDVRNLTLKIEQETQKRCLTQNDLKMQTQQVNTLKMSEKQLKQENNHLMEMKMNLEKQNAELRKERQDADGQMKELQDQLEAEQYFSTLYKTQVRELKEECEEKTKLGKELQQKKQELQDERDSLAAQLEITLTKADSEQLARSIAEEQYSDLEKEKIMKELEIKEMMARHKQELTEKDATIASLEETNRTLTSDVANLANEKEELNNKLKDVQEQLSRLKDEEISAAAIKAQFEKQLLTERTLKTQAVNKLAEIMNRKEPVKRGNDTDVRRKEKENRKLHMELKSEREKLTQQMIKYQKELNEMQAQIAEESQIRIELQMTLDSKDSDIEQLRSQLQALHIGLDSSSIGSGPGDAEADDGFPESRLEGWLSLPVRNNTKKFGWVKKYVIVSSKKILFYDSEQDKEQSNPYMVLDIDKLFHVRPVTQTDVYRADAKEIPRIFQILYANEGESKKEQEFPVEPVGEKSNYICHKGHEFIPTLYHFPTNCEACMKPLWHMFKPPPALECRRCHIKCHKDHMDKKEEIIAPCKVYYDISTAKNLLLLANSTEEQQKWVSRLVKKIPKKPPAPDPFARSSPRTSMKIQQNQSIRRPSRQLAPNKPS
row,Structure (SMILES),pIC50
1,"N[C@H]1CC[C@@H](Oc2cc3cc[nH]c(=O)c3cc2Cl)CC1 [Example 10, 6-(cis-4-Amino-cyclohexyloxy)-7-chloro-2H-isoquinolin-1-one]",+++++ (6.0≦pIC50)
2,"N[C@H]1CC[C@@H](Oc2ccc3c(=O)[nH]ccc3c2Cl)CC1 [Example 11, 6-(cis-4-Amino-cyclohexyloxy)-5-chloro-2H-isoquinolin-1-one]",+++++ (6.0≦pIC50)
3,"O=c1[nH]ccc2cc(O[C@H]3CC[C@@H](NC4CC4)CC3)c(Cl)cc12 [Example 12, 7-Chloro-6-(cis-4-cyclopropylamino-cyclohexyloxy)-2H-isoquinolin-1-one]",+++++ (6.0≦pIC50)
4,"O=c1[nH]ccc2cc(O[C@H]3CC[C@@H](N(C4CC4)C4CC4)CC3)c(Cl)cc12 [Example 13, 7-Chloro-6-(cis-4-dicyclopropylamino-cyclohexyloxy)-2H-isoquinolin-1-one]",+++++ (6.0≦pIC50)
5,"N[C@H]1CC[C@H](Oc2cc3cc[nH]c(=O)c3cc2Cl)CC1 [Example 14, 6-(trans-4-Amino-cyclohexyloxy)-7-chloro-isoquinolin-1-ol]",+++++ (6.0≦pIC50)
6,"N[C@H]1CC[C@H](Oc2ccc3c(=O)[nH]ccc3c2)CC1 [Example 20, trans-6-(4-Amino-cyclohexyloxy)-2H-isoquinolin-1-one]",+++++ (6.0≦pIC50)
7,CCN[C@H]1CC[C@@H](Oc2cc3cc[nH]c(=O)c3cc2Cl)CC1 [Example 29],+++++ (6.0≦pIC50)
8,O=c1[nH]ccc2cc(O[C@H]3CC[C@@H](NCc4cccc(Cl)c4)CC3)c(Cl)cc12 [Example 37],+++++ (6.0≦pIC50)
9,O=c1[nH]ccc2cc(O[C@H]3CC[C@@H](N(CC4CC4)CC4CC4)CC3)c(Cl)cc12 [Example 41],+++++ (6.0≦pIC50)
10,CCCN[C@H]1CC[C@@H](Oc2ccc3c(=O)[nH]ccc3c2Cl)CC1 [Example 44],+++++ (6.0≦pIC50)
11,CCCCN[C@H]1CC[C@@H](Oc2ccc3c(=O)[nH]ccc3c2Cl)CC1 [Example 45],+++++ (6.0≦pIC50)
12,CC(C)N[C@H]1CC[C@@H](Oc2ccc3c(=O)[nH]ccc3c2Cl)CC1 [Example 46],+++++ (6.0≦pIC50)
13,O=c1[nH]ccc2c(Cl)c(O[C@H]3CC[C@@H](NCC4CC4)CC3)ccc12 [Example 48],+++++ (6.0≦pIC50)
14,CCCCN(CCCC)[C@H]1CC[C@@H](Oc2ccc3c(=O)[nH]ccc3c2Cl)CC1 [Example 53],++++ (5.0≦pIC50<6.0)
15,CCN(CC)[C@H]1CC[C@H](Oc2cc3cc[nH]c(=O)c3cc2Cl)CC1 [Example 56],+++++ (6.0≦pIC50)
16,CCCCN[C@H]1CC[C@H](Oc2cc3cc[nH]c(=O)c3cc2Cl)CC1 [Example 58],+++++ (6.0≦pIC50)
17,CC(C)CN(CC(C)C)[C@H]1CC[C@H](Oc2cc3cc[nH]c(=O)c3cc2Cl)CC1 [Example 65],+++++ (6.0≦pIC50)
18,O=c1[nH]ccc2cc(O[C@H]3CC[C@H](N(CC4CC4)CC4CC4)CC3)c(Cl)cc12 [Example 66],++++ (5.0≦pIC50<6.0)
19,O=c1[nH]ccc2cc(O[C@H]3CC[C@@H](NCc4ccccc4)CC3)c(Cl)cc12 [Example 67],+++++ (6.0≦pIC50)
20,O=c1[nH]ccc2cc(O[C@H]3CC[C@@H](NCc4cc(Cl)cc(Cl)c4)CC3)c(Cl)cc12 [Example 69],+++++ (6.0≦pIC50)
21,O=c1[nH]ccc2cc(O[C@H]3CC[C@@H](NCc4cc(Cl)ccc4Cl)CC3)c(Cl)cc12 [Example 70],+++++ (6.0≦pIC50)
22,O=c1[nH]ccc2cc(O[C@H]3CC[C@@H](NCc4ccc(Cl)cc4Cl)CC3)c(Cl)cc12 [Example 71],+++++ (6.0≦pIC50)
23,O=c1[nH]ccc2cc(O[C@H]3CC[C@@H](NCc4ccc5ccccc5c4)CC3)c(Cl)cc12 [Example 77],+++++ (6.0≦pIC50)
24,"O=c1[nH]ccc2cc(O[C@H]3CC[C@@H](NCC4CC4)CC3)ccc12 [Example 125, 6-[cis-4-(Cyclopropylmethyl-amino)-cyclohexyloxy]-2H-isoquinolin-1-one]",+++++ (6.0≦pIC50)
25,"Cc1cc2c(=O)[nH]ccc2cc1O[C@H]1CC[C@H](N)CC1 [Example 137, 6-(trans-4-Amino-cyclohexyloxy)-7-methyl-2H-isoquinolin-1-one]",+++++ (6.0≦pIC50)
26,"Cc1cc2c(=O)[nH]ccc2cc1O[C@H]1CC[C@@H](N)CC1.Cl [Example 138, 6-(cis-4-Amino-cyclohexyloxy)-7-methyl-2H-isoquinolin-1-one]",+++++ (6.0≦pIC50)
